Test results: paper PMC7957392, “Yeast translation elongation factor eEF3 promotes late stages of tRNA translocation” (The EMBO Journal, 2021)

Target: T1, eEF3 (C‐terminally TAP‐tagged, in native eEF3‐80S complex) (Saccharomyces cerevisiae, UniProt P16521)
T1 construct: gene YEF3; final 68 C-terminal residues including tag not modelled
T1 sequence (P16521 2-1044): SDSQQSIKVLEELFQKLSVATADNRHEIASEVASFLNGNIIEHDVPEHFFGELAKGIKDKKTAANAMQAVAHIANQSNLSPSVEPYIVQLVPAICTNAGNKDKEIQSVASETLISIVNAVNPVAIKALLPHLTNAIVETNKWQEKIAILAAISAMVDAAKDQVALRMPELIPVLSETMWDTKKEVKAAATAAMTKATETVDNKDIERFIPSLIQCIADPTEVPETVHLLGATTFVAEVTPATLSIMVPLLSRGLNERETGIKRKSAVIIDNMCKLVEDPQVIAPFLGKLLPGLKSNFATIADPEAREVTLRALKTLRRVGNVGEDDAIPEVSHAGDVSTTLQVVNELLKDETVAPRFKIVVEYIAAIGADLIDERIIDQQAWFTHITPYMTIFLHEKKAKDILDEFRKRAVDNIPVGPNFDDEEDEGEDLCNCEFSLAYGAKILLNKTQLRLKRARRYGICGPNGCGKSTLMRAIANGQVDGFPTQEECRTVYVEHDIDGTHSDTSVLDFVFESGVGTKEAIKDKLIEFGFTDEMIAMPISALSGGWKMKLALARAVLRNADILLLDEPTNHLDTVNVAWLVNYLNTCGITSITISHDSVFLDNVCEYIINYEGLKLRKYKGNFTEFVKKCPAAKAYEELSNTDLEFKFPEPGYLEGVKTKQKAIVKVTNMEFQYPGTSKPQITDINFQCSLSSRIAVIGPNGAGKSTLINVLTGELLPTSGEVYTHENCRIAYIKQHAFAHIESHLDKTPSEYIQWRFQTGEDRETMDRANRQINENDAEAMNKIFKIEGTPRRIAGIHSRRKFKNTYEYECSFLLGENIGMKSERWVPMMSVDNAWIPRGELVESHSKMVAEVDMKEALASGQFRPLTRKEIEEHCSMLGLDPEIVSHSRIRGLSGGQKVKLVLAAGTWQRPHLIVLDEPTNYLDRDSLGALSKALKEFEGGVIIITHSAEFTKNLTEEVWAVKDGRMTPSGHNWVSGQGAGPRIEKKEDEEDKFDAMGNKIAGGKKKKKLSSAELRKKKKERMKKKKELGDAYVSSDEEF
Assay: cryo-EM structure of native eEF3-80S complex ([…] Å)
Conditions: ABC1 and ABC2 nucleotide-binding sites; complex eluted with 1 mM ADPNP, pH 7.4, 10 mM Mg(OAc)2; density assigned by authors as ATP (or ADPNP), identity not resolved

With `Nc1ncnc2c1ncn2[C@@H]1O[C@H](COP(=O)(O)OP(=O)(O)NP(=O)(O)O)[C@@H](O)[C@H]1O` [ADPNP] the “cryo-EM structure of native eEF3-80S complex (3.3 Å)” value was “electron density consistent with ATP (or ADPNP) was observed in the active sites of ABC1”.
